Structures are written as SMILES.

The experiment concerns the target T1, PDGFRB(DKIN) (PDGFR-β) (Homo sapiens, UniProt P09619).
T1 construct: PDGFRB(DKIN)
In words: Phage-display competitive binding assay, PDGFRB(DKIN). Conditions: T7 phage displaying human PDGFR-β, DKIN construct; read-out: Binding Assay: PDGFRB(DKIN). The protocol: The term “ND” represents non-determined values.
Briefly, T7 phage displaying human PDGFR-β were incubated with an affinity matrix coated with known PDGFR-β inhibitor in the presence of various concentrations of the soluble competitor molecules.
With `O=C(Nc1ccc(OCc2ccccc2)cc1)Nc1cc(C2CC2)nn1-c1ccccc1` [Compound H8], the Kd is 0.1 to 1 µM. With `Cc1ccc(-n2nc(C(C)(C)C)cc2NC(=O)Nc2cc(C(C)(C)C)on2)cc1` [Compound H11] the figure was 1 to 10 µM; with `Cc1ccc(-n2nc(C(C)(C)C)cc2NC(=O)Nc2ccc(Br)cc2C(F)(F)F)cc1` [Compound H13], 1 to 10 µM.

As for `Cc1ccc(-n2nc(C(C)(C)C)cc2NC(=O)Nc2ccc(Cl)cc2)cc1` [Compound H14], the Kd fell in the range of 0.1 to 1 µM. Turning to `CN(Cc1cccc([N+](=O)[O-])c1)C(=O)Nc1cc(C(C)(C)C)on1` [Compound J3], the Kd was in the range of 0.1 to 1 µM.

Turning to `COc1ccc(N(C)C(=O)N(C)c2cc(C(C)(C)C)no2)cc1` [Compound J8], the Kd is above 10 µM. With `COc1ccc(N(C)C(=O)Nc2cc(C(C)(C)C)on2)cc1` [Compound J10] the figure was below 0.1 µM. Take `CCOC(=O)NN(C(=O)Nc1cc(C(C)(C)C)on1)c1ccc(OC)cc1` [Compound J13]: the Kd is above 10 µM.

Consider `COc1ccc(N(N)C(=O)Nc2cc(C(C)(C)C)on2)cc1` [Compound J14], for which the Kd was above 10 µM. With `CC(C)(C)c1cc(NC(=O)Nc2ccc(OCCN3CCOCC3)c3ccccc23)no1` [Compound K1], the Kd fell in the range of 0.1 to 1 µM. Consider `CC(C)(C)c1cc(NC(=O)Nc2ccc(NC(=O)c3cn4cc(Cl)ccc4n3)cc2)no1` [Compound N3], for which the Kd is below 0.1 µM. The same measure for `CC(C)(C)c1cc(NC(=O)Nc2ccc(NC(=O)c3cccc(Cl)n3)cc2)no1` [Compound N4]: below 0.1 µM. As to `Cn1nc(-c2ccccc2)c2cc(C(=O)Nc3ccc(NC(=O)Nc4cc(C(C)(C)C)[nH]n4)cc3)[nH]c21` [Compound N5], the Kd was 0.1 to 1 µM.

`CC(C)(C)c1cc(NC(=O)Nc2ccc(NC(=O)c3ncccc3C(N)=O)cc2)n[nH]1` [Compound N6]: the Kd lay in the range of 0.1 to 1 µM. On to `CC(C)(C)c1cc(NC(=O)Nc2ccc(NC(=O)c3cc([N+](=O)[O-])ccn3)cc2)no1` [Compound N7], for which the Kd is below 0.1 µM. With `CC(C)(C)c1cc(NC(=O)Nc2ccc(NC(=O)c3cccc(F)n3)cc2)no1` [Compound N8] the figure was below 0.1 µM; with `CC(C)(C)c1cc(NC(=O)Nc2ccc(NC(=O)c3cn4nc(Cl)ccc4n3)cc2)no1` [Compound N9], below 0.1 µM; with `Cn1nc(C(C)(C)C)cc1C(=O)Nc1ccc(NC(=O)Nc2cc(C(C)(C)C)on2)cc1` [Compound N10], 0.1 to 1 µM.

For the molecule `Cn1nc(-c2ccccc2)c(C(=O)Nc2ccc(NC(=O)Nc3cc(C(C)(C)C)on3)cc2)c1Cl` [Compound N11], the Kd was above 10 µM. Turning to `COC(=O)c1ccc(C(=O)Nc2ccc(NC(=O)Nc3cc(C(C)(C)C)on3)cc2)nc1` [Compound N12], the Kd was 0.1 to 1 µM. The same measure for `CC(C)(C)c1cc(NC(=O)Nc2ccc(NC(=O)C3=NCC=N3)cc2)no1` [Compound N13]: below 0.1 µM. For `CC(C)(C)c1cc(NC(=O)Nc2ccc(NC(=O)c3csnn3)cc2)no1` [Compound N14], the Kd was 0.1 to 1 µM.

On to `Cc1nc(C(=O)Nc2ccc(NC(=O)Nc3cc(C(C)(C)C)on3)cc2)nn1-c1cc(Cl)cc(Cl)c1` [Compound N15], for which the Kd was in the range of 0.1 to 1 µM. With `CC(C)(C)c1cc(NC(=O)Nc2ccc(NC(=O)c3csc(-c4ccncc4)n3)cc2)no1` [Compound N16] the figure was below 0.1 µM. The same measure for `CC(C)(C)c1cc(NC(=O)Nc2ccc(NC(=O)c3cc4cc(Br)ccc4s3)cc2)no1` [Compound N17]: below 0.1 µM; for `Cc1nnsc1C(=O)Nc1ccc(NC(=O)Nc2cc(C(C)(C)C)on2)cc1` [Compound N18]: 0.1 to 1 µM; for `CC(C)(C)c1cc(NC(=O)Nc2ccc(NC(=O)c3c[nH]c(=O)nc3-c3ccncc3)cc2)no1` [Compound N19]: 1 to 10 µM.

On to `Cn1cc(C(=O)Nc2ccc(NC(=O)Nc3cc(C(C)(C)C)on3)cc2)c(C(F)(F)F)n1` [Compound N20], for which the Kd was 0.1 to 1 µM. For the molecule `COc1nc(C)cc(C)c1C(=O)Nc1ccc(NC(=O)Nc2cc(C(C)(C)C)on2)cc1` [Compound N22], the Kd was in the range of 0.1 to 1 µM.
